Data reported in patent US20080114066A1, “Synergistic Effects Of Docosahexaenoic Acid (DHA) And Carotenoid Absorption Of Cognitive Function” (Trustees of Tufts College, priority 2005, published 2008).

Tests used:
Type in all cases: in vivo, human
[1] = test system: non-smoking women (60-80 years); experiment: Stroop Test (computerized); settings: group mean; for Stroop Test Total RT, Interference (NC-C): subtask 4 minus subtask 3
Text: (§1) Subjects: Fifty non-smoking women (60-80 years) were recruited from the general population for a 4 month supplementation study. All subjects underwent a screening examination that includes a medical history, a physical examination, and a routine blood clinical chemistry profile. Volunteers with any history or biochemical evidence of lactose intolerance, liver, kidney, or pancreatic disease, anemia, active bowel disease or resection, insulin-dependent diabetes, easy bruising or bleeding, bleeding disorders, hyperglyceridemia, hyperlipidproteinemia, or alcoholism were excluded from the study. Moreover, individuals taking mineral oil or medications suspected of interfering with fat-soluble vitamin absorption were excluded. Subjects using steroids or non-steroid anti-inflammatory drugs, or antihistamine drugs were excluded. […] Subjects were excluded if they have taken any nutrient supplement for 2 months or more before admission into the study or carotene supplements 6 months or more before the study. Smoking was not permitted during the course of the study.
(§2) Women were randomly assigned to one of four groups: Control (n=10), DHA (n=14, DHA 800 mg/d), lutein (n=12, lutein 12 mg/d), and lutein+DHA (n=14, lutein 12 mg/d; DHA 800 mg/d) (C, D, L, and LD, respectively). The supplement type was randomized. Subjects visited the Jean Mayer USDA Human Nutrition Research Center on Aging at Tufts University on days that supplements were distributed and blood obtained (0 mo-baseline, 2 mo, and 4 mo). Subjects were instructed to take the supplement with a nutritional energy drink (8 oz., Boost®, Mead Johnson Nutritionals) but were otherwise asked to not alter their diets. The diet of each subject was monitored with food frequency questionnaires (Block G, et al., A data-based approach to diet questionnaire design and testing. Am J Epidemiol, 1986. 24: p. 453-469) completed at baseline, 2 months and 4 months to be sure that there were no confounding changes in dietary intake. All subjects completed at least two sets of cognitive and mood self-report tests, at the beginning of the study, then at the end of the study, after four months of supplementation, at the Schepens Eye Research Institute. Compliance was by monitored by interview, compliance calendars and capsule count. Both the subjects and the experimenter were masked to the experimental groups. Blood samples were collected at baseline, 2 months and 4 months, and serum was separated from red blood cells (800×g, 10 minutes). Aliquots of serum are stored at −70° C. until analyzed. At baseline and 2 months, a two month supply of placebo supplements, DHA (800 mg/d, DHASCO, Martek Biological Sciences), lutein (12 mg/d plus 0.5 mg zeaxanthin, Kemin Foods), or lutein+DHA (12 mg/d and 800 mg/d, respectively and nutritional energy drink was provided. At baseline and 4 months, subjects visited the Schepens Eye Research Institute (Boston, Mass.) for testing of MP optical density (MPOD) and an ophthalmic exam. There were two visits at each time point.
(§3) Supplementation Protocol. Dietary supplements in capsule form were Lutein (12 mg/day) (Kemin Foods) and Docosahexaenoic Acid (DHASCO) (800 mg/day) (Martek Biological Sciences). Participants in each of the four supplementation groups were instructed to drink one can of a nutritional supplement daily (Boost Plus) (Mead Johnson) when taking their capsules. Subjects ingested their dietary supplements daily for a period of 4 months. Both the subjects and the experimenter were masked to the experimental groups.
(§4) Tests and Measurements. The battery of cognitive tests included tests of memory and processing speed or attention and a measure of self-reported mood. […] Early cognitive markers of the incidence of dementia and mortality: A longitudinal population-based study of the oldest old. International Journal of Geriatric Psychiatry, 12, 53-59; Payton, M., Riggs, K. M., Spiro III, A., Weiss, S. T. & Hu, H. (1998). […]

[2] = test system: non-smoking women (60-80 years); experiment: Word List Memory Test; settings: group mean
Text: as §1, §2, §3, §4

[3] = test system: non-smoking women (60-80 years); experiment: Shopping List Task (memory test); settings: group mean
Text: as §1, §2, §3, §4

[4] = test system: non-smoking women (60-80 years); experiment: NES2 Pattern Comparison (Pattern Recognition) Test; settings: group mean
Text: as §1, §2, §3, §4

[5] = test system: non-smoking women (60-80 years); experiment: Digit Span Forward and Backward; settings: group mean
Text: as §1, §2, §3, §4

[6] = test system: serum lipoproteins (VLDL, LDL, HDL); experiment: Serum cholesterol, lipoproteins and lipoprotein subfractions by NMR spectroscopy; settings: for Serum HDL concentration / Serum LDL concentration / Serum VLDL concentration / Serum total Cholesterol concentration: after 4 months of supplementation, mean ± se
Protocol: At study end (4 mo), serum was analyzed for total cholesterol, lipoproteins (VLDL, LDL, HDL) as well as lipoprotein subfractions using NMR spectroscopy (Otvos, J. D., Clin Lab, 2002. 48: p. 171-180). The NMR method employs the characteristic methyl group signals broadcast by lipoprotein subclasses of different size as the basis for their quantification. Each measurement includes the concentrations of 5 subclasses of HDL (larger numbers denoting larger subclasses), 3 subclasses of LDL and 6 subclasses of VLDL (V1-V6). Lipoprotein subclasses were grouped into large, intermediate and small subclasses. That is, large, intermediate, and small HDL were H5+H4, H3, and H2+H1, respectively. Large, intermediate and small LDL were L3, L2, and L1, respectively. And large, intermediate and small VLDL were V6+V5, V4+V3, and V2+V1, respectively.
Results are expressed as mean ±SE. Within each group, each subject was followed longitudinally and significant differences from baseline were measured using Student's paired t-test (Systat version10, Port Richmond, Calif. Group differences were measured using ANOVA followed by the Bonferroni post hoc test (Systat10).

[7] = test system: non-smoking women (60-80 years); experiment: MIR (Memory in Reality) apartment test; settings: group mean
Text: as §1, §2, §3, §4

[8] = Baseline, before supplementation
[9] = Final, after 4 months of supplementation

CC/C=C\C/C=C\C/C=C\C/C=C\C/C=C\C/C=C\CCC(=O)O [DHA, cis-4,7,10,13,16,19-docosahexaenoic acid]
Stroop Test Mean RT, Name Colors [1, 8]: 838 ms
Stroop Test Mean RT, Name Colors-Words [1, 8]: 1269 ms
Stroop Test Mean RT, Read Words-Black [1, 8]: 879 ms
Stroop Test Mean RT, Read Words-Color [1, 8]: 715 ms
Stroop Test Total RT, Interference (NC-C) [1, 8]: 21.5 s
Stroop Test Mean RT, Name Colors [1, 9]: 884 ms
Stroop Test Mean RT, Name Colors-Words [1, 9]: 1277 ms
Stroop Test Mean RT, Read Words-Black [1, 9]: 748 ms
Stroop Test Mean RT, Read Words-Color [1, 9]: 727 ms
Stroop Test Total RT, Interference (NC-C) [1, 9]: 19.7 s
Word List Memory Test Delayed Recall (max. 10) [2, 8]: 8.1
Word List Memory Test Trial 1 Items Recalled (max. 10) [2, 8]: 6.3
Word List Memory Test Trials to Learned List (max. 4) [2, 8]: 3.0
Word List Memory Test Delayed Recall (max. 10) [2, 9]: 8.6
Word List Memory Test Trial 1 Items Recalled (max. 10) [2, 9]: 5.9
Word List Memory Test Trials to Learned List (max. 4) [2, 9]: 3.0
Shopping List Memory Test Delayed Recall (max. 10) [3, 8]: 9.0
Shopping List Memory Test Trial 1 Items Recalled (max. 10) [3, 8]: 7.2
Shopping List Memory Test Trials to Learned List (max. 6) [3, 8]: 3.1
Shopping List Memory Test Delayed Recall (max. 10) [3, 9]: 8.7
Shopping List Memory Test Trial 1 Items Recalled (max. 10) [3, 9]: 7.7
Shopping List Memory Test Trials to Learned List (max. 6) [3, 9]: 2.6
Pattern Recognition Test Mean Response Time-Correct [4, 8]: 5.4 s
Pattern Recognition Test Number Correct (max. 15) [4, 8]: 14.6
Pattern Recognition Test Mean Response Time-Correct [4, 9]: 5.0 s
Pattern Recognition Test Number Correct (max. 15) [4, 9]: 14.6
Backward Digit Span Length [5, 8]: 5.4
Backward Digit Span Total [5, 8]: 7.9
Forward Digit Span Length [5, 8]: 6.6
Forward Digit Span Total [5, 8]: 8.4
Backward Digit Span Length [5, 9]: 5.8
Backward Digit Span Total [5, 9]: 8.4
Forward Digit Span Length [5, 9]: 6.7
Forward Digit Span Total [5, 9]: 8.5
Serum HDL concentration [6]: 67 ± 3 mg cholesterol/dL
Serum LDL concentration [6]: 125 ± 5 mg cholesterol/dL
Serum VLDL concentration [6]: 78 ± 14 mg cholesterol/dL
Serum total Cholesterol concentration [6]: 209 ± 5 mg cholesterol/dL
MIR Apartment Test Delayed Recall (max. 10) [7, 8]: 9.4
MIR Apartment Test Location Recall (max. 10) [7, 8]: 9.9
MIR Apartment Test Delayed Recall (max. 10) [7, 9]: 9.4
MIR Apartment Test Location Recall (max. 10) [7, 9]: 10.0

CC1=C[C@H](O)CC(C)(C)[C@H]1/C=C/C(C)=C/C=C/C(C)=C/C=C/C=C(C)/C=C/C=C(C)/C=C/C1=C(C)C[C@@H](O)CC1(C)C [Lutein, lutein]
Stroop Test Mean RT, Name Colors [1, 8]: 1008 ms
Stroop Test Mean RT, Name Colors-Words [1, 8]: 1492 ms
Stroop Test Mean RT, Read Words-Black [1, 8]: 844 ms
Stroop Test Mean RT, Read Words-Color [1, 8]: 753 ms
Stroop Test Total RT, Interference (NC-C) [1, 8]: 24.2 s
Stroop Test Mean RT, Name Colors [1, 9]: 1014 ms
Stroop Test Mean RT, Name Colors-Words [1, 9]: 1462 ms
Stroop Test Mean RT, Read Words-Black [1, 9]: 945 ms
Stroop Test Mean RT, Read Words-Color [1, 9]: 883 ms
Stroop Test Total RT, Interference (NC-C) [1, 9]: 22.4 s
Word List Memory Test Delayed Recall (max. 10) [2, 8]: 6.8
Word List Memory Test Trial 1 Items Recalled (max. 10) [2, 8]: 5.8
Word List Memory Test Trials to Learned List (max. 4) [2, 8]: 3.4
Word List Memory Test Delayed Recall (max. 10) [2, 9]: 7.6
Word List Memory Test Trial 1 Items Recalled (max. 10) [2, 9]: 5.8
Word List Memory Test Trials to Learned List (max. 4) [2, 9]: 3.5
Shopping List Memory Test Delayed Recall (max. 10) [3, 8]: 8.3
Shopping List Memory Test Trial 1 Items Recalled (max. 10) [3, 8]: 6.9
Shopping List Memory Test Trials to Learned List (max. 6) [3, 8]: 4.2
Shopping List Memory Test Delayed Recall (max. 10) [3, 9]: 7.6
Shopping List Memory Test Trial 1 Items Recalled (max. 10) [3, 9]: 6.5
Shopping List Memory Test Trials to Learned List (max. 6) [3, 9]: 3.9
Pattern Recognition Test Mean Response Time-Correct [4, 8]: 6.1 s
Pattern Recognition Test Number Correct (max. 15) [4, 8]: 14.5
Pattern Recognition Test Mean Response Time-Correct [4, 9]: 6.4 s
Pattern Recognition Test Number Correct (max. 15) [4, 9]: 14.3
Backward Digit Span Length [5, 8]: 5.1
Backward Digit Span Total [5, 8]: 7.5
Forward Digit Span Length [5, 8]: 6.6
Forward Digit Span Total [5, 8]: 8.1
Backward Digit Span Length [5, 9]: 4.7
Backward Digit Span Total [5, 9]: 6.9
Forward Digit Span Length [5, 9]: 7.0
Forward Digit Span Total [5, 9]: 8.7
Serum HDL concentration [6]: 70 ± 5 mg cholesterol/dL
Serum LDL concentration [6]: 113 ± 6 mg cholesterol/dL
Serum VLDL concentration [6]: 75 ± 12 mg cholesterol/dL
Serum total Cholesterol concentration [6]: 199 ± 8 mg cholesterol/dL
Intermediate HDL subclass, group comparison ([6]; study end (4 mo)): significantly greater in the L group than in the LD group
MIR Apartment Test Delayed Recall (max. 10) [7, 8]: 8.3
MIR Apartment Test Location Recall (max. 10) [7, 8]: 9.5
MIR Apartment Test Delayed Recall (max. 10) [7, 9]: 8.6
MIR Apartment Test Location Recall (max. 10) [7, 9]: 9.5
